Data published in ChEMBL document CHEMBL4507276 (2021).

Assays:
[1] = test system: Tyrosine-protein kinase ABL1 (Homo sapiens), P00519 [Q252H]; settings: Compound concentration 1000.0 nM
[2] = target: Activin receptor type-2B (Homo sapiens) (UniProt Q13705); settings: Compound concentration 1000.0 nM
[3] = target: Calcium/calmodulin-dependent protein kinase type II subunit gamma (Homo sapiens) (UniProt Q13555); settings: Compound concentration 1000.0 nM
[4] = test system: Epidermal growth factor receptor (Homo sapiens), P00533 [L858R,T790M]; settings: Compound concentration 1000.0 nM
[5] = target: Mitogen-activated protein kinase 3 (Homo sapiens) (UniProt P27361); settings: Compound concentration 1000.0 nM
[6] = test system: Receptor-type tyrosine-protein kinase FLT3 (Homo sapiens), P36888 [UNDEFINED MUTATION]; settings: Compound concentration 1000.0 nM
[7] = test system: Receptor-type tyrosine-protein kinase FLT3 (Homo sapiens), P36888 [UNDEFINED MUTATION]; settings: Compound concentration 1000.0 nM; remark: listed apart in the source
[8] = target: Serine/threonine-protein kinase ICK (Homo sapiens) (UniProt Q9UPZ9); settings: Compound concentration 1000.0 nM
[9] = target: Serine/threonine-protein kinase LATS1 (Homo sapiens) (UniProt O95835); settings: Compound concentration 1000.0 nM
[10] = target: T1, Mitogen-activated protein kinase kinase kinase 3 (Homo sapiens) (UniProt Q99759); settings: Compound concentration 1000.0 nM
T1 sequence (whole entry): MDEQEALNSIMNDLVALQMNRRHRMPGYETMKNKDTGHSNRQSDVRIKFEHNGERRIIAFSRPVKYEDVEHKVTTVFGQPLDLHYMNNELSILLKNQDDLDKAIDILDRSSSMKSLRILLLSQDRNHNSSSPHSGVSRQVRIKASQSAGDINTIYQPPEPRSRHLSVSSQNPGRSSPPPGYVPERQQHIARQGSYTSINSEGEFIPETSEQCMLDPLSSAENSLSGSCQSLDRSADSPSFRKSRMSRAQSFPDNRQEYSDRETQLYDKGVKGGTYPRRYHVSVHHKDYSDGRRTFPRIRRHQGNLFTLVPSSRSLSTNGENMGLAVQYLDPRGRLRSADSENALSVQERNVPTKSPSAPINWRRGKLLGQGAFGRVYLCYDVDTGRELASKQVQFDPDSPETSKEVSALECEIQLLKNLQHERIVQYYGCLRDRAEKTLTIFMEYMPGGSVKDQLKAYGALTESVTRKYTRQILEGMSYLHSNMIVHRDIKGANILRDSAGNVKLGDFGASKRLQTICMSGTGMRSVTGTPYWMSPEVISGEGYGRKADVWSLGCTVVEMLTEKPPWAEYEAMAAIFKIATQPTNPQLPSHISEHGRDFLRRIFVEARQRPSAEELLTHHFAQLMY

[11] = target: Myosin light chain kinase 2, skeletal/cardiac muscle (Homo sapiens) (UniProt Q9H1R3); settings: Compound concentration 1000.0 nM
[12] = target: Serine/threonine-protein kinase pim-2 (Homo sapiens) (UniProt Q9P1W9); settings: Compound concentration 1000.0 nM
[13] = target: T2, Protein kinase C iota type (Homo sapiens) (UniProt P41743); settings: Compound concentration 1000.0 nM
T2 sequence (whole entry): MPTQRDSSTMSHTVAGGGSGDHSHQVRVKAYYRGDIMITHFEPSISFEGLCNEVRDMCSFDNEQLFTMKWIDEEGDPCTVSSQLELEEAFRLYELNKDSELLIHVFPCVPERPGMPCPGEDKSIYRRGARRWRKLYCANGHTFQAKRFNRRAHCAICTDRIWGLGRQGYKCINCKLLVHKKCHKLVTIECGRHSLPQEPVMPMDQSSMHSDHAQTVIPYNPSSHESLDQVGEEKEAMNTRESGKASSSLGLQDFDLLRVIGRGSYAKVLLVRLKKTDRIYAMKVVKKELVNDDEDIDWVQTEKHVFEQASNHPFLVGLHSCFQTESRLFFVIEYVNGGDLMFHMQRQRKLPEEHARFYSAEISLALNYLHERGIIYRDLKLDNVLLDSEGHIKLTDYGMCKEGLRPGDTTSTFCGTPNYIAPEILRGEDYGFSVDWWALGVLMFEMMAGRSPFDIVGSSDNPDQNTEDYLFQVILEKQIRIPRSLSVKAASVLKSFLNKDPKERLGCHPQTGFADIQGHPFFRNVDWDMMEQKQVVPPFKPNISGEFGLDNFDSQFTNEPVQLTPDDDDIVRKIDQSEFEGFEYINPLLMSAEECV

[14] = target: T3, Alpha-1A adrenergic receptor (Homo sapiens) (UniProt P35348); settings: Compound concentration 10.0 uM
T3 sequence (whole entry): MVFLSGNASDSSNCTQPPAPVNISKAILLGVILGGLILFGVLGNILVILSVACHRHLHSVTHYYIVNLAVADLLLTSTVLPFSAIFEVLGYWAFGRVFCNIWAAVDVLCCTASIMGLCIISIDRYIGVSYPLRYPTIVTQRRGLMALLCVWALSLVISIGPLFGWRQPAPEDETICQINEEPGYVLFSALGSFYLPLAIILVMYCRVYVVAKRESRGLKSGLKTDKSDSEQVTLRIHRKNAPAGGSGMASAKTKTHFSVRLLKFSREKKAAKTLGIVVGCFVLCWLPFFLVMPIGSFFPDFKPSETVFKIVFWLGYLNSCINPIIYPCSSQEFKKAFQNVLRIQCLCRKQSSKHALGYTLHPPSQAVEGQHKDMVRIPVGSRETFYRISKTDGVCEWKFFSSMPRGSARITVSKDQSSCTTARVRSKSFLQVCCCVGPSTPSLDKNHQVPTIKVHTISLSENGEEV

Chain of Receptor-type tyrosine-protein kinase FLT3 (Homo sapiens), P36888 [UNDEFINED MUTATION] (P36888 whole entry, looked up, change not shown): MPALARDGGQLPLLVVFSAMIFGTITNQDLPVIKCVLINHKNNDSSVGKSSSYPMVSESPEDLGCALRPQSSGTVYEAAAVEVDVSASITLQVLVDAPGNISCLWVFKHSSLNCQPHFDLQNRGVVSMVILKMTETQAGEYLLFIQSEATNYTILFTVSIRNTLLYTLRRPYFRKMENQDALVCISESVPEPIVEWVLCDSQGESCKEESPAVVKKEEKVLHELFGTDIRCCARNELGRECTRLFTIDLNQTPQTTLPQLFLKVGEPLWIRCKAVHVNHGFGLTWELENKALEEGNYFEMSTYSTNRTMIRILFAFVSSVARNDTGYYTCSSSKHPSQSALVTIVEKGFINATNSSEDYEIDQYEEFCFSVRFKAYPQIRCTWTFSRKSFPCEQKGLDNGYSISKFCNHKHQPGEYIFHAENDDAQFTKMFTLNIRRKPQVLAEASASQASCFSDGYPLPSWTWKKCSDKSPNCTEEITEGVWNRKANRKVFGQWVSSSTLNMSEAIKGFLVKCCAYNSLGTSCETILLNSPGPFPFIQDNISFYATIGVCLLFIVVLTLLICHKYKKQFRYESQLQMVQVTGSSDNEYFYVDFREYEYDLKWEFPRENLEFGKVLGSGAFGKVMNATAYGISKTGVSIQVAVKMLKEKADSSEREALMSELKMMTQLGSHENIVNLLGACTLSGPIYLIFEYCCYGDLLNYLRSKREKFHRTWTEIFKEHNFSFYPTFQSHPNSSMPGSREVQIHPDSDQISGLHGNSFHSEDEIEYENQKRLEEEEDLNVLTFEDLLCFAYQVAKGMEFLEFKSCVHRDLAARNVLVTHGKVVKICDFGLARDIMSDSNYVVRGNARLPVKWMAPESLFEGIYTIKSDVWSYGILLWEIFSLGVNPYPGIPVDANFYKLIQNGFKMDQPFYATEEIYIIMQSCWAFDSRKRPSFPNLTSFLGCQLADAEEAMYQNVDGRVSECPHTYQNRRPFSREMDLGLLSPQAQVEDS
Chain of Myosin light chain kinase 2, skeletal/cardiac muscle (Homo sapiens) (Q9H1R3 whole entry): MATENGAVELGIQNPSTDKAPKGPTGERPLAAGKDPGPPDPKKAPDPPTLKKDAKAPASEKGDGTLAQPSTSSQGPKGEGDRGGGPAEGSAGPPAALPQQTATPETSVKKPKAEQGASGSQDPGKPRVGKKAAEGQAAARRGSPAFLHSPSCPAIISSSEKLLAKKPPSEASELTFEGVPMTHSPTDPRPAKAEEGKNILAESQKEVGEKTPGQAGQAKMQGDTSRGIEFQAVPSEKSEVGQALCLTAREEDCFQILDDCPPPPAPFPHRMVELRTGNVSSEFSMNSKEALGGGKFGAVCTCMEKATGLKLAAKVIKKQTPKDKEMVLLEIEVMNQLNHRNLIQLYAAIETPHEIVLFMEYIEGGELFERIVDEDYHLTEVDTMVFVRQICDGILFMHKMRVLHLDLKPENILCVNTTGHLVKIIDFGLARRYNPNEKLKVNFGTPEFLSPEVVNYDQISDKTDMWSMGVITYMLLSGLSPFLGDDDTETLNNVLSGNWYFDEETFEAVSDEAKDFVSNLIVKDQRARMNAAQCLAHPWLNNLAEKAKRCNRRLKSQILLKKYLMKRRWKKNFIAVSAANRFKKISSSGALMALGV
Chain of Mitogen-activated protein kinase 3 (Homo sapiens) (P27361 whole entry): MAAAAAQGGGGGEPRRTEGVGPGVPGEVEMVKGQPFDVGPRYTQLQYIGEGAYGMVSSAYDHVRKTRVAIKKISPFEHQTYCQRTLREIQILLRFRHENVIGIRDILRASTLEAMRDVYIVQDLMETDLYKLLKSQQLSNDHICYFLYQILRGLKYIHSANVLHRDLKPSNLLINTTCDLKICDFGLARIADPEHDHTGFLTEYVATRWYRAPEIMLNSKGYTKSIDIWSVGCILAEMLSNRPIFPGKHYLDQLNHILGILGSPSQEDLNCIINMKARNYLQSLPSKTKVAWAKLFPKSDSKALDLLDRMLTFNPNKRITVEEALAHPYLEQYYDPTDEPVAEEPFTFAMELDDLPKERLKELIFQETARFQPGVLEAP
Chain of Serine/threonine-protein kinase ICK (Homo sapiens) (Q9UPZ9 whole entry): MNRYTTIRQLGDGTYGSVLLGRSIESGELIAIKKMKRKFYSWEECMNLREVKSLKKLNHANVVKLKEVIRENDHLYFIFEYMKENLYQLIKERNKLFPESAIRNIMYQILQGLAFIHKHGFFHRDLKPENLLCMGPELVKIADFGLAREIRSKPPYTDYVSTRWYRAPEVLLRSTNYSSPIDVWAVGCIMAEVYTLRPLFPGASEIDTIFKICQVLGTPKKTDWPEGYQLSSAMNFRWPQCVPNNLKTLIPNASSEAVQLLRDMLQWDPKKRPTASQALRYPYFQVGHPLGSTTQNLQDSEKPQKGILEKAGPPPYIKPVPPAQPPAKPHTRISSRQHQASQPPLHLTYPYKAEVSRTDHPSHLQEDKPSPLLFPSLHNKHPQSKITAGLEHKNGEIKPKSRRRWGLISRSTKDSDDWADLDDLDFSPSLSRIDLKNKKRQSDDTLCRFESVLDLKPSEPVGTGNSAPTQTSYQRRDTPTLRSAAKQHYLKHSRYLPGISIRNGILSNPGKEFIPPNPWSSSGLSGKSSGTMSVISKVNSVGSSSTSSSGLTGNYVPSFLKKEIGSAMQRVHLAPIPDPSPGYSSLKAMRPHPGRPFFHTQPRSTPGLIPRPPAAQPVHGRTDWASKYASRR
Chain of Serine/threonine-protein kinase LATS1 (Homo sapiens) (O95835 whole entry): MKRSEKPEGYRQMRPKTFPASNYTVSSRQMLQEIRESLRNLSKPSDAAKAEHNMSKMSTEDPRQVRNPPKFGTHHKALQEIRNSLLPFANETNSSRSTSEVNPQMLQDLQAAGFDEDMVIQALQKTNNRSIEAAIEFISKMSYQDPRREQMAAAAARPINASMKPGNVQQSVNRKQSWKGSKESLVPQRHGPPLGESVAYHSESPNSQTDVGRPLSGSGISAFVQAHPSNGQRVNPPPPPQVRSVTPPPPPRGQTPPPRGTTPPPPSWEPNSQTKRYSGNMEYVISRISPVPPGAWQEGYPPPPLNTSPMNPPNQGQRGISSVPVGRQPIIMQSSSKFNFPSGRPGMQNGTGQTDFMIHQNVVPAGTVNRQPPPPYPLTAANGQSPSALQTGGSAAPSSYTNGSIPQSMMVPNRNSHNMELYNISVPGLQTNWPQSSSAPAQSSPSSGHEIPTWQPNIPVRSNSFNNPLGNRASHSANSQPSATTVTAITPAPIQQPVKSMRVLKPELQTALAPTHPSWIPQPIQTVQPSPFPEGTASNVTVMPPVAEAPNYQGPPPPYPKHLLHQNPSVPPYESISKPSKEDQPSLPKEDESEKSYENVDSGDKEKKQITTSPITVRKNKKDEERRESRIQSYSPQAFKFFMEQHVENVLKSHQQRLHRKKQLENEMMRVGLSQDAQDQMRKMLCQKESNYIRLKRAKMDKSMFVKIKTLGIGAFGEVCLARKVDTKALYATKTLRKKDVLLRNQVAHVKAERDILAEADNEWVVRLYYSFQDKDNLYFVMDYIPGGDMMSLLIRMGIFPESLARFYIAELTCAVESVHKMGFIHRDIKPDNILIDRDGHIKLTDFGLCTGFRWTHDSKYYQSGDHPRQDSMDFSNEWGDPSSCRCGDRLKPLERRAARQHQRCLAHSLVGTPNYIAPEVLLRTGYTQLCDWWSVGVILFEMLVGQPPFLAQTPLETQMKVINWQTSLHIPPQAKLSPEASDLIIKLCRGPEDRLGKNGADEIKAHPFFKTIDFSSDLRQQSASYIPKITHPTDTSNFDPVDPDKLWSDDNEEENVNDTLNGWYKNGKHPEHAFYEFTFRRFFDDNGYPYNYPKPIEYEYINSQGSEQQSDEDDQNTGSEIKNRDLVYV
Chain of Serine/threonine-protein kinase pim-2 (Homo sapiens) (Q9P1W9 whole entry, looked up): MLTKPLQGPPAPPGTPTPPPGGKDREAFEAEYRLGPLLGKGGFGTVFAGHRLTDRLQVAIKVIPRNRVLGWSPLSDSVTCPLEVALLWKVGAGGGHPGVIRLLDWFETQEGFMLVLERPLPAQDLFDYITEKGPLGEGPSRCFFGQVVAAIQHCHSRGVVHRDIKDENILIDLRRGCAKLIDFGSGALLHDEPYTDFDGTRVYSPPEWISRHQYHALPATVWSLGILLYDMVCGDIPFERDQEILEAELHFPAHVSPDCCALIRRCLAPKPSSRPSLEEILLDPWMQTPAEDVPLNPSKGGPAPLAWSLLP
Chain of Calcium/calmodulin-dependent protein kinase type II subunit gamma (Homo sapiens) (Q13555 whole entry): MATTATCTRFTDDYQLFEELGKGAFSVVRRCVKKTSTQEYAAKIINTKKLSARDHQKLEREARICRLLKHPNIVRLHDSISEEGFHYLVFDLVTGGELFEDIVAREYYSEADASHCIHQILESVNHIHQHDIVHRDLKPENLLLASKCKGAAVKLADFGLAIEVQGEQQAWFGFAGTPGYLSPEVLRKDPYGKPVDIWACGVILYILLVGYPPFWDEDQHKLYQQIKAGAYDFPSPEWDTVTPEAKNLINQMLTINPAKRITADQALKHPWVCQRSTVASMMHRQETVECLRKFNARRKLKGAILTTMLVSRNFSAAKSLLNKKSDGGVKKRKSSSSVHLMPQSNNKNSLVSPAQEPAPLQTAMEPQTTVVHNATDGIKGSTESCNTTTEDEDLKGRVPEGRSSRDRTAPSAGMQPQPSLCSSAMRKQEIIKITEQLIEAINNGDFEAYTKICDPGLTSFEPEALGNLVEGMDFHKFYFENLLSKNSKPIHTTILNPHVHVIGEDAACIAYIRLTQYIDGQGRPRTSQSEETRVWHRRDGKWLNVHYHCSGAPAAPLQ

Structure (SMILES) | residual activity [1] [%] | residual activity [2] [%] | residual activity [3] [%] | residual activity [4] [%] | residual activity [5] [%] | residual activity [6] [%] | residual activity [7] [%] | residual activity [8] [%] | residual activity [9] [%] | residual activity [10] [%] | residual activity [11] [%] | residual activity [12] [%] | residual activity [13] [%] | inhibition [14] [%]
CN(C)C(=O)Cn1cc(-c2nc(C3(c4ccc(-c5cnc(N)nc5)cc4)CC3)no2)cn1 [BI 0153] | 48 | 96 | 98 | 97 | 79 | 89 | 85 | 76 | 100 | 81 | 90 | 100 | 100 | 13.9
CN(C)C(=O)Cn1cc(-c2nc([C@@](C)(c3ccc(-c4cnc(N)nc4)cc3)C3CC3)no2)cn1 [BI 665915] | 0 | 81 | 100 | 93 | 100 | 62 | 100 | 100 | 93 | 86 | 100 | 100 | 93 | 4.68
